Oligonucleotides are written 5' to 3', each unit as a sugar letter and its base; * is a phosphorothioate linkage, no mark a phosphodiester; rarer units and linkages stand in square brackets, end groups in braces. Plain capitals give the bases only. d = 2'-deoxy (DNA); r = 2'-OH (RNA)
Also: test concentration or dose not given here.

The target of the first series is P2rx2 (rat). The experiment in a line: reporter assay of Huesken 2005. As to conditions: siRNA.
On to “sense rArArArGrUrCrArArGrGrGrGrArUrCrArCrCrAdTdT / antisense rUrGrGrUrGrArUrCrCrCrCrUrUrGrArCrUrUrUdGdG”, for which the normalised inhibition (eCFP-eYFP dual reporter) amounted to 66.2%.
For the substance “sense rArArArUrUrUrCrArCrCrArUrCrCrUrCrArUrCdTdT / antisense rGrArUrGrArGrGrArUrGrGrUrGrArArArUrUrUdGdG”, the normalised inhibition (eCFP-eYFP dual reporter) was determined as 23.6%.
Regarding “sense rArArCrArArGrCrUrCrUrArCrArGrCrCrArUrAdTdT / antisense rUrArUrGrGrCrUrGrUrArGrArGrCrUrUrGrUrUdTdT”, the normalised inhibition (eCFP-eYFP dual reporter) was determined as 76.6%.
On the same count and under the same terms, then “sense rArArCrUrGrUrGrArCrCrUrGrGrArCrUrUrGrUdTdT / antisense rArCrArArGrUrCrCrArGrGrUrCrArCrArGrUrUdCdC”, with 38.6%; and “sense rArArGrCrCrUrArUrGrGrGrArUrUrCrGrArArUdTdT / antisense rArUrUrCrGrArArUrCrCrCrArUrArGrGrCrUrUdTdG”, with 76%.
Regarding “sense rArCrArArGrArUrArArArCrGrGrCrArCrUrArCdTdT / antisense rGrUrArGrUrGrCrCrGrUrUrUrArUrCrUrUrGrUdAdA”, the normalised inhibition (eCFP-eYFP dual reporter) amounted to 50.6%.
For the substance “sense rArCrArGrCrUrCrUrArCrCrUrGrCrCrArUrUrCdTdT / antisense rGrArArUrGrGrCrArGrGrUrArGrArGrCrUrGrUdGdA”, the normalised inhibition (eCFP-eYFP dual reporter) was 42.3%.
Consider “sense rArCrCrArGrGrArCrArGrCrGrArGrArCrCrGrGdTdT / antisense rCrCrGrGrUrCrUrCrGrCrUrGrUrCrCrUrGrGrUdAdG”, for which the normalised inhibition (eCFP-eYFP dual reporter) stood at 49.5%.
For the substance “sense rArCrGrUrCrUrUrCrArUrCrGrUrGrCrArGrArAdTdT / antisense rUrUrCrUrGrCrArCrGrArUrGrArArGrArCrGrUdAdC”, the normalised inhibition (eCFP-eYFP dual reporter) was determined as 85.2%.
For “sense rArCrUrArCrCrArCrCrArCrUrCrGrArArCrUrCdTdT / antisense rGrArGrUrUrCrGrArGrUrGrGrUrGrGrUrArGrUdGdC”, the normalised inhibition (eCFP-eYFP dual reporter) turned out to be 43.6%.
Turning to “sense rArCrUrCrCrCrArGrGrArUrCrArGrCrCrArCrCdTdT / antisense rGrGrUrGrGrCrUrGrArUrCrCrUrGrGrGrArGrUdAdG”, the normalised inhibition (eCFP-eYFP dual reporter) came to 44.7%.
For “sense rArCrUrUrCrUrGrArCrArArCrCrArUrUrUrUrCdTdT / antisense rGrArArArArUrGrGrUrUrGrUrCrArGrArArGrUdTdC”, the normalised inhibition (eCFP-eYFP dual reporter) was 33.5%.
On to “sense rArGrCrArUrArUrGrGrGrArCrArArArGrArCrCdTdT / antisense rGrGrUrCrUrUrUrGrUrCrCrCrArUrArUrGrCrUdGdG”, for which the normalised inhibition (eCFP-eYFP dual reporter) is 53.1%.

Another series has as its target UBE2T. Kind of series: reporter assay of Huesken 2005. The note with it: siRNA. For orientation: A reporter such as luciferase makes a cellular process visible.
Take “sense rGrArCrCrUrGrCrGrArGrCrUrCrArArArUrArUdTdT / antisense rArUrArUrUrUrGrArGrCrUrCrGrCrArGrGrUrCdAdT”: the normalised inhibition (eCFP-eYFP dual reporter) amounted to 101%.
Consider “sense rGrArUrGrArGrGrArArGrArGrArUrGrCrUrUrGdTdT / antisense rCrArArGrCrArUrCrUrCrUrUrCrCrUrCrArUrCdAdG”, for which the normalised inhibition (eCFP-eYFP dual reporter) stood at 95.1%.
For “sense rGrArUrUrUrGrUrCrUrGrGrArUrGrUrUrCrUrCdTdT / antisense rGrArGrArArCrArUrCrCrArGrArCrArArArUrCdCdT”, the normalised inhibition (eCFP-eYFP dual reporter) worked out at 75%.
Consider “sense rGrCrArArCrUrGrUrGrUrUrGrArCrCrUrCrUrAdTdT / antisense rUrArGrArGrGrUrCrArArCrArCrArGrUrUrGrCdGdA”, for which the normalised inhibition (eCFP-eYFP dual reporter) is 114%.
Consider “sense rGrCrGrArGrCrUrCrArArArUrArUrUrArGrGrUdTdT / antisense rArCrCrUrArArUrArUrUrUrGrArGrCrUrCrGrCdAdG”, for which the normalised inhibition (eCFP-eYFP dual reporter) worked out at 71.6%.
As to “sense rGrCrUrArGrUrArGrGrCrArUrArGrArArArArGdTdT / antisense rCrUrUrUrUrCrUrArUrGrCrCrUrArCrUrArGrCdTdG”, the normalised inhibition (eCFP-eYFP dual reporter) was 106%.
As for “sense rGrCrUrCrArArArUrArUrUrArGrGrUrGrGrArGdTdT / antisense rCrUrCrCrArCrCrUrArArUrArUrUrUrGrArGrCdTdC”, the normalised inhibition (eCFP-eYFP dual reporter) is 87.1%.
For “sense rGrCrUrGrArUrGrArGrGrArArGrArGrArUrGrCdTdT / antisense rGrCrArUrCrUrCrUrUrCrCrUrCrArUrCrArGrCdCdT”, the normalised inhibition (eCFP-eYFP dual reporter) is 73.8%.
“sense rGrCrUrUrGrArUrArArUrCrUrArCrCrArGrArGdTdT / antisense rCrUrCrUrGrGrUrArGrArUrUrArUrCrArArGrCdAdT”: the normalised inhibition (eCFP-eYFP dual reporter) worked out at 101%.
Take “sense rGrGrArArGrGrArUrUrUrGrUrCrUrGrGrArUrGdTdT / antisense rCrArUrCrCrArGrArCrArArArUrCrCrUrUrCrCdAdG”: the normalised inhibition (eCFP-eYFP dual reporter) worked out at 96.1%.
With “sense rGrGrCrArUrCrArCrArUrGrUrUrGrGrCrArArGdTdT / antisense rCrUrUrGrCrCrArArCrArUrGrUrGrArUrGrCrCdTdG”, the normalised inhibition (eCFP-eYFP dual reporter) worked out at 87.3%.
On to “sense rGrGrUrGrCrUrUrGrGrArGrArCrCrArUrCrCrCdTdT / antisense rGrGrGrArUrGrGrUrCrUrCrCrArArGrCrArCrCdTdT”, for which the normalised inhibition (eCFP-eYFP dual reporter) came to 80.4%.
As for “sense rGrUrGrArCrUrCrCrArGrArGrUrArCrArCrArAdTdT / antisense rUrUrGrUrGrUrArCrUrCrUrGrGrArGrUrCrArCdCdA”, the normalised inhibition (eCFP-eYFP dual reporter) worked out at 108%.
For “sense rGrUrUrArUrCrArUrUrCrCrUrGrArGrArGrGrUdTdT / antisense rArCrCrUrCrUrCrArGrGrArArUrGrArUrArArCdTdT”, the normalised inhibition (eCFP-eYFP dual reporter) was found to be 75.4%.
For the substance “sense rUrArArArGrArCrCrArArArUrGrGrArUrGrArCdTdT / antisense rGrUrCrArUrCrCrArUrUrUrGrGrUrCrUrUrUrAdTdC”, the normalised inhibition (eCFP-eYFP dual reporter) was 63.2%.
The same measure, in the same setting: then “sense rUrArUrCrArUrCrCrArArArCrArUrUrGrArUrUdTdT / antisense rArArUrCrArArUrGrUrUrUrGrGrArUrGrArUrAdAdA”, with 67.4%; and “sense rUrArUrUrArGrGrUrGrGrArGrCrCrArArCrArCdTdT / antisense rGrUrGrUrUrGrGrCrUrCrCrArCrCrUrArArUrAdTdT”, with 57.4%; and “sense rUrCrArArCrArCrArGrArArArArGrGrArArGrGdTdT / antisense rCrCrUrUrCrCrUrUrUrUrCrUrGrUrGrUrUrGrAdGdT”, with 65.5%.
“sense rUrCrArArCrArUrCrGrCrArArCrUrGrUrGrUrUdTdT / antisense rArArCrArCrArGrUrUrGrCrGrArUrGrUrUrGrAdGdG”: the normalised inhibition (eCFP-eYFP dual reporter) was determined as 103%.
For “sense rUrCrArCrUrCrCrArArUrUrUrArUrCrArUrCrCdTdT / antisense rGrGrArUrGrArUrArArArUrUrGrGrArGrUrGrAdGdA”, the normalised inhibition (eCFP-eYFP dual reporter) is 56.8%.
With “sense rUrCrCrGrArUrUrUrCrUrCrArCrUrCrCrArArUdTdT / antisense rArUrUrGrGrArGrUrGrArGrArArArUrCrGrGrAdTdC”, the normalised inhibition (eCFP-eYFP dual reporter) is 109%.
Take “sense rUrCrUrArCrCrArGrArGrGrCrUrGrGrUrGrArCdTdT / antisense rGrUrCrArCrCrArGrCrCrUrCrUrGrGrUrArGrAdTdT”: the normalised inhibition (eCFP-eYFP dual reporter) was 63.5%.
Turning to “sense rUrCrUrGrCrUrGrGrArArGrGrArUrUrUrGrUrCdTdT / antisense rGrArCrArArArUrCrCrUrUrCrCrArGrCrArGrAdAdT”, the normalised inhibition (eCFP-eYFP dual reporter) stood at 87.8%.
“sense rUrCrUrGrGrArUrGrUrUrCrUrCrArArArUrUrGdTdT / antisense rCrArArUrUrUrGrArGrArArCrArUrCrCrArGrAdCdA”: the normalised inhibition (eCFP-eYFP dual reporter) was 80.8%.
As to “sense rUrGrArArCrCrUrCrCrUrCrArGrArUrCrCrGrAdTdT / antisense rUrCrGrGrArUrCrUrGrArGrGrArGrGrUrUrCrAdAdA”, the normalised inhibition (eCFP-eYFP dual reporter) is 105%.
On the same count and under the same terms, then “sense rUrGrArGrArGrGrUrArCrCrCrArUrUrUrGrArAdTdT / antisense rUrUrCrArArArUrGrGrGrUrArCrCrUrCrUrCrAdGdG”, with 87.4%; and “sense rUrGrArGrGrArArGrArGrArUrGrCrUrUrGrArUdTdT / antisense rArUrCrArArGrCrArUrCrUrCrUrUrCrCrUrCrAdTdC”, with 91.6%.
On the same count and under the same terms, with “sense rUrGrArUrGrArCrCrCrGrCrUrCrArUrGrGrCrUdTdT / antisense rArGrCrCrArUrGrArGrCrGrGrGrUrCrArUrCrAdGdG” the figure was 75.6%; with “sense rUrGrArUrUrCrUrGrCrUrGrGrArArGrGrArUrUdTdT / antisense rArArUrCrCrUrUrCrCrArGrCrArGrArArUrCrAdAdT”, 95.4%; with “sense rUrGrGrArUrGrUrUrCrUrCrArArArUrUrGrCrCdTdT / antisense rGrGrCrArArUrUrUrGrArGrArArCrArUrCrCrAdGdA”, 71.9%.
“sense rUrGrGrUrGrArCrUrCrCrArGrArGrUrArCrArCdTdT / antisense rGrUrGrUrArCrUrCrUrGrGrArGrUrCrArCrCrAdGdC”: the normalised inhibition (eCFP-eYFP dual reporter) stood at 80.3%.
For “sense rUrGrUrUrCrUrCrArArArUrUrGrCrCrArCrCrAdTdT / antisense rUrGrGrUrGrGrCrArArUrUrUrGrArGrArArCrAdTdC”, the normalised inhibition (eCFP-eYFP dual reporter) was 53.3%.
For “sense rUrGrUrUrGrGrCrArArGrArUrArArArGrArCrCdTdT / antisense rGrGrUrCrUrUrUrArUrCrUrUrGrCrCrArArCrAdTdG”, the normalised inhibition (eCFP-eYFP dual reporter) worked out at 75.8%.
As for “sense rUrUrArArGrCrUrArGrArArGrUrUrArUrCrArUdTdT / antisense rArUrGrArUrArArCrUrUrCrUrArGrCrUrUrArAdAdA”, the normalised inhibition (eCFP-eYFP dual reporter) was 89.9%.
In the case of “sense rUrUrGrArArCrCrUrCrCrUrCrArGrArUrCrCrGdTdT / antisense rCrGrGrArUrCrUrGrArGrGrArGrGrUrUrCrArAdAdT”, the normalised inhibition (eCFP-eYFP dual reporter) was determined as 56.5%.
Take “sense rUrUrGrArCrCrUrCrUrArUrUrCrArGrCrUrGrCdTdT / antisense rGrCrArGrCrUrGrArArUrArGrArGrGrUrCrArAdCdA”: the normalised inhibition (eCFP-eYFP dual reporter) is 49.2%.

The values above are taken from the OligoGym collection.
